Assay: xn = mol fraction of the nth substance listed
Conditions: 101 kPa, Liquid; for speed of sound: Pulse-echo method; for mass density: Vibrating tube method

c1ccncc1 [pyridine] + CCC(C)=O
Conditions | mass density [kg/m3] | speed of sound [m/s]
293.15 K, x2 = 0.0584 | 972.18 | 1424.6
293.15 K, x2 = 0.101 | 964.232 | 1415.8
293.15 K, x2 = 0.1557 | 954.114 | 1404.3
293.15 K, x2 = 0.2073 | 944.625 | 1393.3
293.15 K, x2 = 0.2479 | 937.177 | 1384.6
293.15 K, x2 = 0.2928 | 929.036 | 1374.9
293.15 K, x2 = 0.3534 | 918.142 | 1361.8
293.15 K, x2 = 0.3992 | 909.88 | 1351.6
293.15 K, x2 = 0.4535 | 900.169 | 1339.5
293.15 K, x2 = 0.4962 | 892.606 | 1330
293.15 K, x2 = 0.5461 | 883.748 | 1318.7
293.15 K, x2 = 0.5481 | 883.417 | 1318.2
293.15 K, x2 = 0.6003 | 874.227 | 1306.4
293.15 K, x2 = 0.6425 | 866.814 | 1296.7
293.15 K, x2 = 0.6948 | 857.663 | 1284.5
293.15 K, x2 = 0.7267 | 852.119 | 1277.1
293.15 K, x2 = 0.7519 | 847.742 | 1271.2
293.15 K, x2 = 0.8053 | 838.532 | 1258.7
293.15 K, x2 = 0.855 | 829.934 | 1246.9
293.15 K, x2 = 0.8907 | 823.832 | 1238.4
293.15 K, x2 = 0.9459 | 814.255 | 1224.9
298.15 K, x2 = 0.0517 | 968.413 | 1405.7
298.15 K, x2 = 0.1009 | 959.234 | 1395.4
298.15 K, x2 = 0.151 | 949.923 | 1384.8
298.15 K, x2 = 0.1952 | 941.811 | 1375.4
298.15 K, x2 = 0.2473 | 932.304 | 1364.2
298.15 K, x2 = 0.301 | 922.495 | 1352.5
298.15 K, x2 = 0.3559 | 912.585 | 1340.4
298.15 K, x2 = 0.4041 | 903.885 | 1329.7
298.15 K, x2 = 0.4494 | 895.816 | 1319.6
298.15 K, x2 = 0.4994 | 886.914 | 1308.4
298.15 K, x2 = 0.5472 | 878.48 | 1297.6
298.15 K, x2 = 0.5916 | 870.664 | 1287.4
298.15 K, x2 = 0.6951 | 852.55 | 1263.5
298.15 K, x2 = 0.7563 | 841.861 | 1249.2
298.15 K, x2 = 0.8029 | 833.777 | 1238.1
298.15 K, x2 = 0.8525 | 825.199 | 1226.2
298.15 K, x2 = 0.8944 | 817.974 | 1216.2
298.15 K, x2 = 0.9525 | 808.018 | 1202.3
303.15 K, x2 = 0.0589 | 962.089 | 1384.7
303.15 K, x2 = 0.117 | 951.238 | 1372.5
303.15 K, x2 = 0.162 | 942.929 | 1362.9
303.15 K, x2 = 0.2056 | 934.925 | 1353.6
303.15 K, x2 = 0.2489 | 926.99 | 1344.2
303.15 K, x2 = 0.3075 | 916.353 | 1331.5
303.15 K, x2 = 0.3506 | 908.572 | 1322
303.15 K, x2 = 0.4016 | 899.409 | 1310.8
303.15 K, x2 = 0.4494 | 890.804 | 1300
303.15 K, x2 = 0.4959 | 882.52 | 1289.5
303.15 K, x2 = 0.5482 | 873.285 | 1277.7
303.15 K, x2 = 0.5967 | 864.734 | 1266.6
303.15 K, x2 = 0.6484 | 855.625 | 1254.6
303.15 K, x2 = 0.6972 | 847.054 | 1243.1
303.15 K, x2 = 0.7446 | 838.804 | 1232.1
303.15 K, x2 = 0.7952 | 829.99 | 1220
303.15 K, x2 = 0.8476 | 820.935 | 1207.6
303.15 K, x2 = 0.8928 | 813.143 | 1196.8
303.15 K, x2 = 0.9371 | 805.515 | 1186

— the NIST ThermoML archive (doi:10.1021/je100472t)
